Assay results from patent US12532886B2, “Method of killing microbes using C3-C5 n-alkyl-gamma-butyrolactams and antimicrobial compositions containing same” (Virox Technologies Inc., priority 2018, dated 2026).

Tested on: M. smegmatis
Assay: ASTM E2197-02 test method, without soil load, against mycobacteria
Assay type: cell-based
Protocol: Solutions A, B and AA were prepared to test the antimicrobial activity of N-alkyl-gamma-butyrolactam, specifically N-butyl-gamma-butyrolactam and N-octyl-gamma-butyrolactam. These solutions were tested using the ASTM E2197-02 test method (5-minute contact time or 75 second contact time) without soil load, against hard-to-kill mycobacteria (M. smegmatis).
Solution B was also tested using ASTM E2197-02 test method (75 second contact time), without soil load, against mycobacteria (M. smegmatis) and achieved a log10 reduction of 0.11 (shown in the last row of Table 1.0).
Additional solutions were prepared to assess the antimicrobial activity of N-alkyl-gamma-butyrolactam, specifically N-butyl-gamma-butyrolactam, when combined with other antimicrobial agents in aqueous solution. These solutions are summarized in Tables 2.0, 2.1, and 2.2 below and tested using ASTM E2197-02 test method (75 second contact time), without soil load, against mycobacteria (M. smegmatis).

CCCCN1CCCC1=O [N-butyl-gamma-butyrolactam]
Antimicrobial activity against M. smegmatis, 5 minutes contact time: possesses antimicrobial activity

CCCCCCCCN1CCCC1=O [N-octyl-gamma-butyrolactam]
Antimicrobial activity against M. smegmatis, 5 minutes contact time: no antimicrobial activity
